Key:
[1] = molecular target: T1, ERR1 (also known as ERR-α or ERR-1) (Homo sapiens, UniProt P11474); test: TR-FRET assay (disruption of co-activator peptide binding); assay type: biochemical; conditions: 6His-tagged ERR1LBD, GST-hSRC2 co-activator peptide; average of 3 independent experiments
T1 sequence (P11474 193-421 limits assumed): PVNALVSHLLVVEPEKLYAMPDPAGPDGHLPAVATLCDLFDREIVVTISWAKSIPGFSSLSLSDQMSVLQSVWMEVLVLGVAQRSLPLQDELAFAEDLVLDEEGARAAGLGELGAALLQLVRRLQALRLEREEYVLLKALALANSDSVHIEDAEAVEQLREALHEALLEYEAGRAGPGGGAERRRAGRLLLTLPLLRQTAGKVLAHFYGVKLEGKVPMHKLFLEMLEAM
Experimental: Time-Resolved Fluorescence Resonance Energy Transfer (TR-FRET) experiments were performed to examine the functional response of ERR1 (also known as ERR-α or ERR-1) ligands. The TR-FRET assay described herein relied on the conformation of ERR1 for binding to a co-activator peptide: when a test compound binds to ERR1 and alters its conformation, it can disrupt the binding of the co-activator peptide. The components of this homogeneous secondary assay included: the ^6His-tagged-ERR1LBD, a GST-labeled-hSRC2 co-activator polypeptide and a fluorescent donor/acceptor pair from CIS bio international htrf/bioassays (Bedford, Mass.) using both an α-GST Europium Cryptate (Eu) label and an α^6His-XL665 (allophycocyanin) fluorophore.
For TR-FRET measurements, the reaction was buffered in 25 mM Tris pH 8, 2.5 mM Hepes, 20 mM KCl, 1 mM DTT, and 0.05 mg/mL BSA (-lipids). The final concentrations of reagents were 6 nM of ERR1LBD, 6 nM GST-SRC-2 peptide, 30 nM Eu cryptate, and 7.5 nM XL665. Reactions were allowed to reach equilibrium at 25° C. for 4-18 hours before collecting data on the Analyst from LJL Biosystems (Molecular Devices Sunnyvale, Calif.). As a time-resolved method, the samples were excited at […] and emission was collected for 1 ms at both 615 and 665 nm with delays of 400 and 75 μs, respectively. Dose response curves were fitted using a hyperbolic equation and the data reported is the average of 3 independent experiments.

Zucker fa/fa male rats = test: Zucker fa/fa Rat Model Assay; assay type: in vivo; conditions: dosed orally once a day for 4 days, blood collected at day 5
Source text: Zucker fa/fa is a monogenic model of frank diabetes due to a mutation on the fa gene truncating the leptin receptor and preventing its interaction with its peptide hormone. This mutation results in a hyperphagic phenotype and the rodent develops obesity, hyperlipidemia, fasting hyperglycemia and insulin resistance. Zucker fa/fa male rats were received at four weeks of age and allowed to acclimate for one week. At five weeks of age the animals were single housed in cages in a temperature-controlled room with 12-hour light/dark cycle. The rats were allowed ad libitum access to water and food and throughout the study were maintained on a Purina 5008 diet. Animals were sorted based primarily on fed insulin levels and circulating triglycerides. Animals were dosed orally once a day in the morning for 4 days. The vehicle used was either 20% HPβCD (Hydroxypropyl Beta Cyclodextrin) or 15% Vitamin E/30% PEG-400 (Polyethylene Glycol 400). Fed insulin and triglycerides were measured using blood collected from the tail vein at day 5. Serum plasma samples were prepared by centrifugation in EDTA (Ethylenediaminetetraacetic acid) containing tubes, transferred into 96 well plates and stored at −80° C.

`CN1CCC(N(C)C2=NC(=O)/C(=C/c3ccc4c(cnn4Cc4ccc(C(F)(F)F)cc4C(F)(F)F)c3)S2)CC1` [Compound 20, 5-[1-(2,4-Bis-trifluoromethyl-benzyl)-1H-indazol-5-ylmethylene]-2-[methyl-(1-methyl-piperidin-4-yl)-amino]-thiazol-4-one] was tested, and the EC50 [1] was 18 nM, the “% Lowering Fed Insulin Levels” value (Zucker fa/fa male rats) was 40% and the “% Lowering Fed Triglyceride Levels” value (Zucker fa/fa male rats) was 34%.
For `CN(C1=NC(=O)/C(=C/c2ccc3c(cnn3Cc3ccc(Cl)cc3C(F)(F)F)c2)S1)[C@@H](CO)C(=O)O` [Compound 15, 2S-({5-[1-(4-Chloro-2-trifluoromethyl-benzyl)-1H-indazol-5-ylmethylene]-4-oxo-4,5-dihydro-thiazol-2-yl}-methyl-amino)-3-hydroxy-propionic acid], the EC50 [1] was 23 nM, the “% Lowering Fed Insulin Levels” value (Zucker fa/fa male rats) was 40% and the “% Lowering Fed Triglyceride Levels” value (Zucker fa/fa male rats) was 41%.
`COCCN1CCC(CN(C)C2=NC(=O)/C(=C/c3ccc4c(cnn4Cc4ccc(Cl)cc4C(F)(F)F)c3)S2)C1` (centres unmarked) [Compound 47, 5-[1-(4-Chloro-2-trifluoromethyl-benzyl)-1H-indazol-5-ylmethylene]-2-{[1-(2-methoxy-ethyl)-pyrrolidin-3-ylmethyl]-methyl-amino}-thiazol-4-one] was tested, and the EC50 [1] was 17 nM.
`CN(C1=NC(=O)/C(=C/c2ccc3c(cnn3Cc3ccc(C(F)(F)F)cc3C(F)(F)F)c2)S1)C1CCN(CC(N)=O)CC1` [Compound 52, 2-(4-{[-5-({1-[2,4-Bis(trifluoromethyl)benzyl]-1H-indazol-5-yl}methylidene)-4-oxo-4,5-dihydro-1,3-thiazol-2-yl](methyl)amino}piperidin-1-yl)acetamide] was tested, and the EC50 [1] was 13 nM, the “% Lowering Fed Insulin Levels” value (Zucker fa/fa male rats) was 30% and the “% Lowering Fed Triglyceride Levels” value (Zucker fa/fa male rats) was 38%.
`CN(C[C@H](O)c1ccc(O)cc1)C1=NC(=O)/C(=C/c2ccc3c(cnn3Cc3ccc(Cl)cc3C(F)(F)F)c2)S1` [Compound 31, (R)-5-[1-(4-Chloro-2-trifluoromethyl-benzyl)-1H-indazol-5-ylmethylene]-2-{[2-hydroxy-2-(4-hydroxy-phenyl)-ethyl]-methyl-amino}-thiazol-4-one] gave an EC50 [1] of 31 nM.
Compound `COCCN1CCC(N(C)C2=NC(=O)/C(=C/c3ccc4c(cnn4Cc4ccc(Cl)cc4C(F)(F)F)c3)S2)CC1` [Compound 24, 5-[1-(4-Chloro-2-trifluoromethyl-benzyl)-1H-indazol-5-ylmethylene]-2-{[1-(2-methoxy-ethyl)-piperidin-4-yl]-methyl-amino}-thiazol-4-one] has an EC50 [1] of 9 nM.
`COC[C@@H]1CC(N(C)C2=NC(=O)/C(=C/c3ccc4c(cnn4Cc4ccc(C(F)(F)F)cc4C(F)(F)F)c3)S2)CN1` (some centres unmarked) [Compound 40, 5-[1-(2,4-Bis-trifluoromethyl-benzyl)-1H-indazol-5-ylmethylene]-2-[(5-methoxymethyl-pyrrolidin-3-yl)-methyl-amino]-thiazol-4-one] showed an EC50 [1] of 21 nM.
`CN(C)CCN(C)C1=NC(=O)/C(=C/c2ccc3c(cnn3Cc3ccc(C(F)(F)F)cc3C(F)(F)F)c2)S1` [Compound 2, 5-[1-(2,4-Bis-trifluoromethyl-benzyl)-1H-indazol-5-ylmethylene]-2-[(2-dimethylamino-ethyl)-methyl-amino]-thiazol-4-one] was tested, and the EC50 [1] was 7 nM.
Work on `CN(C1=NC(=O)/C(=C/c2ccc3c(cnn3Cc3ccc(Cl)cc3C(F)(F)F)c2)S1)C1CCN(CCF)CC1` [Compound 25, 5-[1-(4-Chloro-2-trifluoromethyl-benzyl)-1H-indazol-5-ylmethylene]-2-{[1-(2-fluoro-ethyl)-piperidin-4-yl]-methyl-amino}-thiazol-4-one] yielded an EC50 [1] of 11 nM.
Compound `CN(CCN1CCOCC1)C1=NC(=O)/C(=C/c2ccc3c(cnn3Cc3ccc(C(F)(F)F)cc3C(F)(F)F)c2)S1` [Compound 27, 5-[1-(2,4-Bis-trifluoromethyl-benzyl)-1H-indazol-5-ylmethylene]-2-[methyl-(2-morpholin-4-yl-ethyl)-amino]-thiazol-4-one] has an EC50 [1] of 21 nM.
`CN1CCC(CN(C)C2=NC(=O)/C(=C/c3ccc4c(cnn4Cc4ccc(Cl)cc4C(F)(F)F)c3)S2)C1` (centres unmarked) [Compound 34, 5-[1-(4-Chloro-2-trifluoromethyl-benzyl)-1H-indazol-5-ylmethylene]-2-[methyl-(1-methyl-pyrrolidin-3-ylmethyl)-amino]-thiazol-4-one] gave an EC50 [1] of 17 nM.

Reference: patent publication US8426604B2 (Janssen Pharmaceutica NV, priority 2010, dated 2013)
